From ChEMBL document CHEMBL1122691, “Development of an affinity ligand for purification of alpha 2-adrenoceptors from human platelet membranes” (J Med Chem, 1984)

Tests used:
[1] = target: T1, Adrenergic receptor alpha-2 (Homo sapiens, UniProt P08913+P18825+P18089); experiment: Binding affinity against alpha-2-adrenergic receptor using 10 nM [3H]yohimbine in preparations in human platelet membranes from three separate experiments using 10 inhibitor concentrations; assay type: cell membranes
T1 sequence (P08913 whole entry): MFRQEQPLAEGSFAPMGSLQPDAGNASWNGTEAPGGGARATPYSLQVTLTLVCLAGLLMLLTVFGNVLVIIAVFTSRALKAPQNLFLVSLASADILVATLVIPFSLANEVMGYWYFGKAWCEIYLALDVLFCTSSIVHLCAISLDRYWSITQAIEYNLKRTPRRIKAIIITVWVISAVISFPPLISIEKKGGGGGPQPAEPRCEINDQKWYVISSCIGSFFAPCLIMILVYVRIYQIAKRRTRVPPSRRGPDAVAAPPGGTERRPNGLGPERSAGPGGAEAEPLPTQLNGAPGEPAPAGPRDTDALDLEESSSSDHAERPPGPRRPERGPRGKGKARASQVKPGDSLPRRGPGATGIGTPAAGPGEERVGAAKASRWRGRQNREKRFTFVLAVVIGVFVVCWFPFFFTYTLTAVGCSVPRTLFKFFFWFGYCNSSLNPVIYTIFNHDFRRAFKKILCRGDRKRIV
T1 sequence (P18825 whole entry): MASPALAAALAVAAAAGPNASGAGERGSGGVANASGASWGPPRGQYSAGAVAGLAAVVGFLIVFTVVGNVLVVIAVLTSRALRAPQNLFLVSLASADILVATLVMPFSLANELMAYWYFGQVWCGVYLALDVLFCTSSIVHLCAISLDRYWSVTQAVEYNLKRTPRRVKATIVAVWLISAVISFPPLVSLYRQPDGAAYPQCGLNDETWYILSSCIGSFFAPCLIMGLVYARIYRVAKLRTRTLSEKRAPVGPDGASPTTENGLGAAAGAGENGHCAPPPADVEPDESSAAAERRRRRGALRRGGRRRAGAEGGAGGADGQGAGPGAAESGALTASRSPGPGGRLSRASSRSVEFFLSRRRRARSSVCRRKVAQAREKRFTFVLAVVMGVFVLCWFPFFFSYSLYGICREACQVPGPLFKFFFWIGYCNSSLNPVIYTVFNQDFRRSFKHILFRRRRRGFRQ
T1 sequence (P18089 whole entry): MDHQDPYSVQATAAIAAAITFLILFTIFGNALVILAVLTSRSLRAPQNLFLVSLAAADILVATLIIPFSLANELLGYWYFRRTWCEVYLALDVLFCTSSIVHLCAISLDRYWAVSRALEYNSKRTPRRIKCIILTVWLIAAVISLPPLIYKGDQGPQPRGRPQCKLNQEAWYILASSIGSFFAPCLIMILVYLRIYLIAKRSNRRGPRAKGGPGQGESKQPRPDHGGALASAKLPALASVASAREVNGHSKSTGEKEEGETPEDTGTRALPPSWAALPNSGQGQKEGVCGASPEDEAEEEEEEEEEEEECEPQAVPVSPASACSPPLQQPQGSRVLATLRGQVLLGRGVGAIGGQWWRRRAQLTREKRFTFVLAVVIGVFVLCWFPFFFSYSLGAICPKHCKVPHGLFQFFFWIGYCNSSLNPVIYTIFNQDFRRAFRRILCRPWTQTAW

[2] = target: T1, Adrenergic receptor alpha-2; assay type: cell membranes
[3] = system: Adrenergic receptor alpha-2 (Cavia porcellus); details: Cardiac atrium
[4] = target: T1, Adrenergic receptor alpha-2; experiment: Binding affinity against alpha-2-adrenergic receptor using 10 nM [3H]yohimbine in human platelet membranes from four to five separate experiments using 12 inhibitor concentrations; assay type: cell membranes

For `C=CCOc1ccc2c(c1)CCNCC2`, the Ki [1] was 232 nM.
`C=CCOc1cccc2c1CCN(C)CC2` was tested, and the Ki [2] was 338 nM and the K beta [3] was 206 nM.
In the case of `C=CCN1CCc2cccc(Cl)c2CC1`, the Ki [2] is reported as 6.1 nM and the K beta [3] is reported as 60 nM.
`C=CCOc1ccc(Cl)c2c1CCN(C)CC2` showed a Ki [4] of 48 nM and a K beta [3] of 150 nM.
